According to patent US20080020981A1, “Non-nucleoside reverse transcriptase inhibitors” (Roche Palo Alto LLC, priority 2006, published 2008):
Counter-ions that a name gives are not always drawn. Like-named read-outs stand apart in the source and are kept apart here.

Assays:
[1] = molecular target: T1, HIV-RT enzyme (HIV-1 reverse transcriptase) (Human immunodeficiency virus type 1 group M subtype B, UniProt P03366); test: HIV-1 Reverse Transcriptase Assay Inhibitor IC50 Determination (RNA-dependent DNA polymerase activity, SPA); assay type: biochemical
T1 construct: Reactions were initiated by the addition of 30 μl of the HIV-RT enzyme
Description: HIV-1 Reverse Transcriptase Assay Inhibitor IC50 Determination
RNA-dependent DNA polymerase activity was measured using a biotinylated primer oligonucleotide and tritiated dNTP substrate. Newly synthesized DNA was quantified by capturing the biotinylated primer molecules on streptavidin coated Scintillation Proximity Assay (SPA) beads (Amersham). […] The biotinylated DNA primer was obtained from the Integrated DNA Technologies Inc. and the RNA template was synthesized by Dharmacon. […] Reactions were initiated by the addition of 30 μl of the HIV-RT enzyme (final concentrations of […]). Protein concentrations were adjusted to provide linear product formation for at least 30 min of incubation. After incubation at 30° for 30 min, the reaction was quenched by addition of 50 μl of 200 mM EDTA (pH 8.0) and 2 mg/ml SA-PVT SPA beads (Amersham, RPNQ0009, reconstituted in 20 mM Tris-HCl, pH 8.0, 100 mM EDTA and 1% BSA). The beads were left to settle overnight and the SPA signals were counted in a 96-well top counter-NXT (Packard). IC50 values were obtained by sigmoidal regression analysis using GraphPad Prism 3.0 (GraphPad Software, Inc.).

[2] = RNA-dependent DNA polymerase activity, SPA, 30 min at 30°, read-out: HIV-RT IC50

2-[3-(3-Chloro-5-cyano-phenoxy)-4-cyclopropyl-2-fluoro-phenoxy]-N-(2-chloro-4-sulfamoyl-phenyl)-acetamide [I-9]
IC50 [1, 2]: 7.7 nM

2-[4-Bromo-3-(3-chloro-5-cyano-phenoxy)-2-fluoro-phenoxy]-N-[2-chloro-4-(2,4-dioxo-imidazolidin-1-yl)-phenyl]-acetamide [I-30]
IC50 [1, 2]: 15.5 nM

2-[4-Chloro-3-(3,5-dicyano-phenoxy)-2-fluoro-phenoxy]-N-(2-methyl-4-sulfamoyl-phenyl)-acetamide [I-14]
IC50 [1, 2]: 6.4 nM

CCC(=O)NS(=O)(=O)c1ccc(NC(=O)COc2ccc(Br)c(Oc3cc(Cl)cc(C#N)c3)c2F)c(Cl)c1 (as salt: Na) [I-23]
melting point: 261 to 264 °C

CCC(=O)NS(=O)(=O)c1ccc(NC(=O)COc2ccc(Br)c(Oc3cc(Cl)cc(C#N)c3)c2F)c(C)c1 (as salt: Na) [I-24]
melting point: 268.1 to 270 °C

N#Cc1cc(Cl)cc(Oc2c(Cl)ccc(OCC(=O)Nc3ccc(S(N)(=O)=O)cc3Cl)c2F)c1 [I-1, 2-[4-Chloro-3-(3-chloro-5-cyano-phenoxy)-2-fluoro-phenoxy]-N-(2-chloro-4-sulfamoyl-phenyl)-acetamide]
IC50 [1, 2]: 16.2 nM
melting point: 233.3 to 247.6 °C

Cc1cc(S(N)(=O)=O)ccc1NC(=O)COc1ccc(Cl)c(Oc2cc(Cl)cc(C#N)c2)c1F [I-2]
IC50 [1, 2]: 12.8 nM
melting point: 209.9 to 212 °C

Cc1cc(S(N)(=O)=O)ccc1NC(=O)COc1ccc(Br)c(Oc2cc(Cl)cc(C#N)c2)c1F [I-4, 2-[4-Bromo-3-(3-chloro-5-cyano-phenoxy)-2-fluoro-phenoxy]-N-(2-methyl-4-sulfamoyl-phenyl)-acetamide]
IC50 [1, 2]: 6.5 nM
melting point: 226 to 228.8 °C

N#Cc1cc(Cl)cc(Oc2c(Br)ccc(OCC(=O)Nc3ccc(S(N)(=O)=O)cc3Cl)c2F)c1 [I-5]
IC50 [1, 2]: 18.7 nM
melting point: 250.9 to 252.3 °C

CCc1ccc(OCC(=O)Nc2ccc(S(N)(=O)=O)cc2C)c(F)c1Oc1cc(Cl)cc(C#N)c1 [I-6, 2-[3-(3-Chloro-5-cyano-phenoxy)-4-ethyl-2-fluoro-phenoxy]-N-(2-methyl-4-sulfamoyl-phenyl)-acetamide]
IC50 [1, 2]: 8.4 nM
melting point: 188 to 189.6 °C

CCc1ccc(OCC(=O)Nc2ccc(S(N)(=O)=O)cc2Cl)c(F)c1Oc1cc(Cl)cc(C#N)c1 [I-7]
IC50 [1, 2]: > 10000 nM

N#Cc1cc(Cl)cc(Oc2c(C3CC3)ccc(OCC(=O)Nc3ccc(S(N)(=O)=O)cc3Cl)c2F)c1 [I-8]
IC50 [1, 2]: 18.3 nM
melting point: 210 to 211 °C

N#Cc1cc(Cl)cc(Oc2cc(OCC(=O)Nc3ccc(S(N)(=O)=O)cc3Cl)ccc2Cl)c1 [I-10]
IC50 [1, 2]: 7.4 nM
melting point: 217 to 219 °C

COc1cc(C#N)cc(Oc2c(Cl)ccc(OCC(=O)Nc3ccc(S(N)(=O)=O)cc3C)c2F)c1 [I-11]
IC50 [1, 2]: 3.1 nM
melting point: 122 to 123.2 °C

COc1cc(C#N)cc(Oc2c(Cl)ccc(OCC(=O)Nc3ccc(S(N)(=O)=O)cc3Cl)c2F)c1 [I-12]
IC50 [1, 2]: 8.2 nM
melting point: 211 to 212 °C

Cc1cc(S(N)(=O)=O)ccc1NC(=O)COc1ccc(Cl)c(Oc2cc(C#N)cc(C#N)c2)c1F [I-13]
IC50 [1, 2]: 3.8 nM
melting point: 264.5 to 265.2 °C

Cc1cc(S(N)(=O)=O)ccc1NC(=O)COc1ccc(Cl)c(Oc2cc(Cl)cc(C#N)c2)c1 [I-15, 2-[4-Chloro-3-(3-chloro-5-cyano-phenoxy)-phenoxy]-N-(2-methyl-4-sulfamoyl-phenyl)-acetamide]
IC50 [1, 2]: 6.5 nM

COc1cc(C#N)cc(Oc2c(Br)ccc(OCC(=O)Nc3ccc(S(N)(=O)=O)cc3C)c2F)c1 [I-16]
IC50 [1, 2]: 5.1 nM
melting point: 220 to 223.3 °C

COc1cc(C#N)cc(Oc2c(Br)ccc(OCC(=O)Nc3ccc(S(N)(=O)=O)cc3Cl)c2F)c1 [I-17]
IC50 [1, 2]: 12.6 nM
melting point: 213.9 to 217.9 °C

Cc1cc(S(N)(=O)=O)ccc1NC(=O)COc1ccc(Cl)c(Oc2cc(Br)cc(C#N)c2)c1F [I-18]
IC50 [1, 2]: 6.6 nM
melting point: 234.9 to 236.6 °C

N#Cc1cc(Br)cc(Oc2c(Cl)ccc(OCC(=O)Nc3ccc(S(N)(=O)=O)cc3Cl)c2F)c1 [I-19]
IC50 [1, 2]: 14.9 nM
melting point: 242.2 to 244.9 °C

CCc1cc(C#N)cc(Oc2c(Cl)ccc(OCC(=O)Nc3ccc(S(N)(=O)=O)cc3Cl)c2F)c1 [I-20, 2-[4-Chloro-3-(3-cyano-5-ethyl-phenoxy)-2-fluoro-phenoxy]-N-(2-chloro-4-sulfamoyl-phenyl)-acetamide]
IC50 [1, 2]: 31.7 nM

N#Cc1cc(C#N)cc(Oc2c(Br)ccc(OCC(=O)Nc3ccc(S(N)(=O)=O)cc3Cl)c2F)c1 [I-21]
IC50 [1, 2]: 19.1 nM
melting point: 255 to 257 °C

CCC(=O)NS(=O)(=O)c1ccc(NC(=O)COc2ccc(Br)c(Oc3cc(Cl)cc(C#N)c3)c2F)c(Cl)c1 [I-23]
IC50 [1, 2]: 4.8 nM

CCC(=O)NS(=O)(=O)c1ccc(NC(=O)COc2ccc(Br)c(Oc3cc(Cl)cc(C#N)c3)c2F)c(C)c1 [I-24]
IC50 [1, 2]: 5.7 nM

N#Cc1cc(Oc2c(Cl)ccc(OCC(=O)Nc3ccc(S(N)(=O)=O)cc3Cl)c2F)cc(C2CC2)c1 [I-26]
IC50 [1, 2]: 66.5 nM
melting point: 219 to 221 °C

N#Cc1cc(Cl)cc(Oc2c(Cl)ccc(OCC(=O)Nc3ccc(C(=O)O)cc3Cl)c2F)c1 [I-27, 3-Chloro-4-{2-[4-chloro-3-(3-chloro-5-cyano-phenoxy)-2-fluoro-phenoxy]-acetylamino}-benzoic acid]
IC50 [1, 2]: 6.1 nM

Cc1cc(C(N)=O)ccc1NC(=O)COc1ccc(Br)c(Oc2cc(Cl)cc(C#N)c2)c1F [I-28, 4-{2-[4-Bromo-3-(3-chloro-5-cyano-phenoxy)-2-fluoro-phenoxy]-acetylamino}-3-methyl-benzamide]
IC50 [1, 2]: 6.9 nM
melting point: 250.6 to 252.5 °C

CC(C)(O)C#Cc1ccc(NC(=O)COc2ccc(Br)c(Oc3cc(Cl)cc(C#N)c3)c2F)c(Cl)c1 [I-31, 2-[4-Bromo-3-(3-chloro-5-cyano-phenoxy)-2-fluoro-phenoxy]-N-[2-chloro-4-(3-hydroxy-3-methyl-but-1-ynyl)-phenyl]-acetamide]
IC50 [1]: 82.1 nM

CC(C)(N)C#Cc1ccc(NC(=O)COc2ccc(Cl)c(Oc3cc(Cl)cc(C#N)c3)c2F)c(Cl)c1 [I-32, N-[4-(3-Amino-3-methyl-but-1-ynyl)-2-chloro-phenyl]-2-[4-chloro-3-(3-chloro-5-cyano-phenoxy)-2-fluoro-phenoxy]-acetamide]
IC50 [1, 2]: 21.4 nM
